Bridge positions count the residues as written; N and C are the ends. Square brackets hold non-standard residues; d marks the D form. Ends that are not written are not given here. Phe(3,5-F2) = N[C@@H](Cc1cc(F)cc(F)c1)C(=O)O; Hyp = O=C(O)[C@@H]1C[C@@H](O)CN1; BP = bis-pyrene
B1: NPs2, nanoparticles self-assembled from transformable peptide monomer 2 (TPM2′) BP-GGAAK-YCDGFYACYMDV (peptide)
peptide: {BP}-GGAAKYCDGFYACYMDV
modifications: disulfide 7-13 (inferred)
notes: Negative control with the HER2 ligand but without the beta-sheet forming peptide; Tested as nanoparticles of about 30 nm

What was measured:
4T1 tumour cells = assay: Flow cytometry binding of LXY30 to 4T1 cells; parameters: species or system murine; settings: 1 μM biotinylated LXY30
Protocol: Experiments were repeated three times. 3×10^5 cells incubated with 1 μM biotinylated LXY30 for 30 min on ice, after washing with PBS followed by incubation with 1:500 streptavidin-PE (1 mg/mL) for 30 min, then run with flow cytometry.

[1] = target: T1, HER2 receptor on the surface of HER2+ breast cancer cells (MCF-7/C6, SKBR-3, BT474) (human, UniProt P04626 23-1255); assay: confocal microscopy on MCF-7/C6 cells, 8 h
T1 construct: whole, on cells; Endogenous HER2 on cell lines; MCF-7/C6 is derived from the human breast cancer line MCF-7 by fractionated irradiation; also called cell surface HER2; HER2 receptors of MCF-7/C6 cells

Row | Molecule | binding to 4T1 tumour cells (4T1 tumour cells) | binding result [1]
1 | cdG-Phe(3,5-diF)-G-Hyp-NcR ([dC][dD]G[Phe(3,5-F2)]G[Hyp]N[dC]R; also: cyclic peptide, ring type and places not given here) [LXY30] | did bind | 
2 | B1 |  | binds
